Experiments:
Assay type in all cases: functional
Rattus norvegicus [1] = test: (§1) Cardioprotective activity in adrenaline-induced MI Rattus norvegicus Sprague-Dawley (rat) model assessed as decrease in heart rate at 5 mg/kg, po for 15 days challenged with adrenaline on day 14 and day 15 measured after 24 hr post second adrenaline injection (reference value: 422.76 +/- 6.158 bpm)
Rattus norvegicus [2] = test: as §1, with “QT interval prolongation” for “heart rate”, “injection by ECG analysis” for “injection”, “0.08205” for “422.76”, “0.0023 sec)” for “6.158 bpm)”
Rattus norvegicus [3] = test: as §1, with “ST interval” for “heart rate”, “injection by ECG analysis” for “injection”, “0.0829” for “422.76”, “0.0024 sec)” for “6.158 bpm)”
Rattus norvegicus [4] = test: as §1, with “increase” for “decrease”, “R-R interval” for “heart rate”, “injection by ECG analysis” for “injection”, “0.135” for “422.76”, “0.0176 sec)” for “6.158 bpm)”
Rattus norvegicus [5] = test: as §1, with “effect on P-duration” for “decrease in heart rate”, “injection by ECG analysis” for “injection”, “0.01136” for “422.76”, “0.0044 sec)” for “6.158 bpm)”

SMILES	Activity (Rattus norvegicus [1]) [bpm]	Time (Rattus norvegicus [2]) [s]	Time (Rattus norvegicus [3]) [s]	Time (Rattus norvegicus [4]) [s]	Time (Rattus norvegicus [5]) [s]
CCOC(=O)C1=C(C)NC(SC)=NC1c1ccc([N+](=O)[O-])cc1 (stereo not given)	315.766	0.06664	0.05879	0.1852	0.0166
COC(=O)C1=C(C)NC(SC)=NC1c1ccc(Cl)cc1 (stereo not given)	382.03	0.03879	0.0545	0.1533	0.01358
COC(=O)C1=C(C)NC(C)=C(C(=O)OC)C1c1ccccc1[N+](=O)[O-] [NIFEDIPINE]	278.5	0.06101	0.0455	0.2146	0.01815

From ChEMBL document CHEMBL3045924, “Synthesis, molecular docking, and cardioprotective activity of 2-methylthio-1,4-dihydropyrimidines” (2012)
